According to PubChem BioAssay (NCI):
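Briefly, cells in 96-well plates were exposed to five compound concentrations for 48 h, and endpoints were estimated by linear interpolation. The concentration for full growth arrest is given as TGI.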

Assays:
Assay in all cases: NCI-60 cell line screen, 48 h
[1] = tested on: BT-549 breast
[2] = tested on: NCI-H23 lung
[3] = tested on: SF-295 CNS
[4] = tested on: K-562 leukemia
[5] = tested on: HL-60(TB) leukemia
[6] = tested on: T-47D breast
[7] = tested on: U251 CNS
[8] = tested on: SK-MEL-5 melanoma
[9] = tested on: SR leukemia
[10] = tested on: COLO 205 colon

Measured: TGI

C/C=C1/CC(C)C(C)(O)C(=O)OCC2C(O)CN3CCC(OC1=O)C23 (stereo not given)
> 100 µM: all assays above
